Measurements published in ChEMBL document CHEMBL6153025, “Multidrug-resistant bacteria quorum-sensing inhibitors: A particular focus on Pseudomonasaeruginosa” (Eur J Med Chem, 2025).
Values after ≈ are worked out from the molar mass of the structure shown. One block for each molecule: values may come before it.

Tests used:
[1] = tested on: Pseudomonas aeruginosa; assay: Antivirulence activity against Pseudomonas aeruginosa PAO1 assessed as inhibition of pyocyanin production; type: functional, organism-based
[2] = Inhibition of quorum sensing system in Pseudomonas aeruginosa PAO1-pqsA assessed as reduction in fluorescence intensity measured for 12 hrs by GFP reporter strain assay
[3] = tested on: Pseudomonas aeruginosa; assay: Antimicrobial activity against Pseudomonas aeruginosa PAO1 assessed as reduction in bacterial growth measured for 24 hrs by broth micro-dilution method; type: functional
[4] = tested on: Pseudomonas aeruginosa; assay: Downregulation of rhlI mRNA expression level in Pseudomonas aeruginosa PAO1 at 200 uM by RT-PCR analysis relative to control; type: functional
[5] = tested on: Pseudomonas aeruginosa; assay: Downregulation of lasI mRNA expression level in Pseudomonas aeruginosa PAO1 at 200 uM by RT-PCR analysis relative to control; type: functional
[6] = tested on: Pseudomonas aeruginosa; assay: Downregulation of rhlR mRNA expression level in Pseudomonas aeruginosa PAO1 at 200 uM by RT-PCR analysis relative to control; type: functional
[7] = tested on: Pseudomonas aeruginosa; assay: Antibacterial activity against Pseudomonas aeruginosa PAO1 assessed as bacterial growth inhibition incubated for 24 hrs by micro-broth dilution method; type: functional
[8] = tested on: Pseudomonas aeruginosa; assay: Downregulation of lasR mRNA expression level in Pseudomonas aeruginosa PAO1 at 200 uM by RT-PCR analysis relative to control; type: functional
[9] = tested on: Pseudomonas aeruginosa; assay: Antibiofilm activity against Pseudomonas aeruginosa PAO1; type: functional, organism-based
[10] = tested on: Pseudomonas aeruginosa; assay: Antivirulence activity against Pseudomonas aeruginosa assessed as reduction in elastase level at 100 uM incubated for 24 hrs by elastin-Congo red staining based analysis relative to control; type: functional; parameters: scale not given: the % may be the effect or the level left
[11] = tested on: Pseudomonas aeruginosa; assay: Downregulation of pqsR mRNA expression in Pseudomonas aeruginosa PAO1 incubated for 4 hrs by RT-qPCR analysis; type: functional, organism-based; details: PAO1, 4 h
[12] = tested on: Pseudomonas aeruginosa; assay: Downregulation of lasR mRNA expression in Pseudomonas aeruginosa PAO1 incubated for 4 hrs by RT-qPCR analysis; type: functional, organism-based; details: PAO1, 4 h
[13] = tested on: Pseudomonas aeruginosa; assay: Anti-virulence activity against Pseudomonas aeruginosa assessed as reduction in protease production level at 100 uM incubated for 24 hrs by absorbance based assay relative to control; type: functional; parameters: scale not given: the % may be the effect or the level left
[14] = tested on: Pseudomonas aeruginosa; assay: Downregulation of rhlR mRNA expression in Pseudomonas aeruginosa PAO1 incubated for 4 hrs by RT-qPCR analysis; type: functional, organism-based; details: PAO1, 4 h
[15] = tested on: Pseudomonas aeruginosa; assay: Downregulation of rhlI mRNA expression in Pseudomonas aeruginosa PAO1 incubated for 4 hrs by RT-qPCR analysis; type: functional, organism-based; details: PAO1, 4 h
[16] = tested on: Pseudomonas aeruginosa; assay: Antimicrobial activity against Pseudomonas aeruginosa assessed as reduction in microbial growth; type: functional, organism-based
[17] = tested on: Pseudomonas aeruginosa; assay: Downregulation of lasA mRNA expression in Pseudomonas aeruginosa PAO1 incubated for 4 hrs by RT-qPCR analysis; type: functional, organism-based; details: PAO1, 4 h
[18] = tested on: Pseudomonas aeruginosa; assay: Antibiofilm activity against Pseudomonas aeruginosa assessed as reduction in biofilm formation incubated for 24 hrs relative to control; type: functional; parameters: scale not given: the % may be the effect or the level left
[19] = tested on: Pseudomonas aeruginosa; assay: Anti-virulence activity against Pseudomonas aeruginosa assessed as reduction in pyocyanin production level at 100 uM incubated for 24 hrs by absorbance based assay relative to control; type: functional; parameters: scale not given: the % may be the effect or the level left
[20] = tested on: Pseudomonas aeruginosa; assay: Downregulation of lasB mRNA expression in Pseudomonas aeruginosa PAO1 incubated for 4 hrs by RT-qPCR analysis; type: functional, organism-based; details: PAO1, 4 h

Structure (SMILES): CC(C)=CCC/C(C)=C/CC/C(C)=C/CO [FARNESOL]
IC50 [1]: 1.11 µg/mL (≈ 4.99 µM)
IC50 [2]: 0.14 µg/mL (≈ 0.63 µM)

MIC [3]: 63 µg/mL (≈ 111 µM)
Structure (SMILES): Fc1ccc(-c2nn(-c3ccc(Cl)cc3)cc2-c2nc(-c3ccccc3)c(-c3ccccc3)[nH]2)c(Br)c1

Structure (SMILES): O=c1c(O)c(-c2ccc(O)c(O)c2)oc2cc(O)cc(O)c12 [QUERCETIN]
Activity [4]: 85%
Activity [5]: 85%
Activity [6]: 85%
MIC [7]: 1 µM (≈ 0.302 µg/mL)
Activity [8]: 85%
IC50 [9]: 100 µM

Structure (SMILES): CCOP(=O)(NCCCCOc1cc(O)c2c(=O)cc(-c3ccccc3)oc2c1)OCC
Activity [10]: 42.2%
IC50 [11]: 100 µM
IC50 [12]: 100 µM
Activity [13]: 18.8%
IC50 [14]: 100 µM
IC50 [15]: 100 µM
IC50 [16]: 100 µM
IC50 [17]: 100 µM
Activity [18]: 78%
Activity [19]: 63.8%
IC50 [20]: 100 µM
